Experimental data reported in patent publication US20180125792A1, “NON-STEROIDAL ANTI-INFLAMMATORY DRUGS FOR COUGH” (BAYER CONSUMER CARE AG, priority 2006, published 2018).

Columns and labels:
[1] = cited from earlier work
[2] = Symptomatic treatment of nonproductive cough in 3 volunteer patients in the final phase of a viral infection; type: in vivo, human
Procedure: The efficacy of ibuprofen in the symptomatic treatment of nonproductive cough was determined in 3 volunteer patients in the final phase of a viral infection. For this purpose, the patients received oral administration of 400 or 800 mg of ibuprofen (the daily dose was between 400 and 1200 mg). No other medicaments were taken by the patients during the viral infection.
It was observed after administration of ibuprofen that the number of attacks of coughing was reduced by more than 50% relative to the number of attacks of coughing before administration of ibuprofen.
The effects of ibuprofen declined after 6 to 8 hours and the cough reappeared in the former severity.

[3] = 600 mg three times a day for 6 days; cited from earlier work
[4] = oral 400 or 800 mg ibuprofen, patients' report

CC(=O)Nc1ccc(O)cc1 [paracetamol]
alleviation of the symptoms of cough ([1]; 5 days, paracetamol 10 mg/kg 3x a day vs ibuprofen or nimesulide): greater

CS(=O)(=O)Nc1ccc([N+](=O)[O-])cc1Oc1ccccc1 [nimesulide]
fever-reducing effect ([1]; 5 days, nimesulide 2.5 mg/kg 2x a day vs paracetamol or ibuprofen 10 mg/kg 3x a day): better and faster than that of paracetamol or ibuprofen

CC(C)Cc1ccc(C(C)C(=O)O)cc1 (stereo not drawn) [ibuprofen]
number of attacks of coughing reduced relative to the number before administration ([2]; oral 400 or 800 mg ibuprofen (daily dose 400-1200 mg), 3 patients): more than 50% | intensity of the urge to cough [2, 4]: reduced | severity of the attacks of coughing [2, 4]: reduced | patients' rest at night ([2]; oral 400 or 800 mg ibuprofen, without additional cough suppressant): possible to improve the patients' rest at night | symptoms of cough after renewed administrations ([2]; subsequent renewed administrations of ibuprofen): again led to the described improvement | symptoms of cough ([1]; 10 mg/kg, 30 children, uncontrolled study): reduction in the symptoms of cough | number of coughing episodes compared with placebo [3]: reduction in the number of coughing episodes
